The values below come from patent US20250152574A1 (BIOGEN MA INC., priority 2022, published 2025).

T1 sequence (Q15125 whole entry): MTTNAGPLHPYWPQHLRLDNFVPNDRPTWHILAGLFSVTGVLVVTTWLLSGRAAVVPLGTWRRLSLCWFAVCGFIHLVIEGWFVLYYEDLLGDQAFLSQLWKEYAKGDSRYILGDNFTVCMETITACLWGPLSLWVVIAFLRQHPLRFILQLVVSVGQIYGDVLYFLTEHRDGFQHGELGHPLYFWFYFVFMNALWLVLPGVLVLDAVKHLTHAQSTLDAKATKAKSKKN

This assay has as its target T1, EBP (Homo sapiens, UniProt Q15125).
T1 construct: HEK293T cells were utilized as the source of EBP enzyme; endogenous in cells; host or cells: HEK293T
As to the kind of experiment: EBP Functional Assay (EBP immunoaffinity LC-MS assay). Particulars: HEK293T cells as source of EBP enzyme; substrate zymosterol-d5, 37° C. for 4 h; percent conversion to dehydrolathosterol-d5 by LC-APCI MRM MS. It counts as biochemical. As to the method:
The EBP immunoaffinity (IA) LC-MS assay measures the potency of small molecule inhibitors of EBP by quantifying their concentration-dependent changes in the enzyme's substrate and product using liquid chromatography atmospheric pressure chemical ionization multiple reaction monitoring mass spectrometry (LC-APCI MRM MS). HEK293T cells were utilized as the source of EBP enzyme. The enzyme was incubated with the small molecule inhibitors at variable concentrations for 30 min. Deuterated form of EBP substrate, zymosterol-d5 (Avanti Polar Lipids, Cat #700068P-1 mg), was then added and the plate was incubated at 37° C. for 4 h. Finally, the sterol isomers were extracted and injected to LC-APCI MRM MS. MRM transition used for the quantification for both zymosterol and […] (substrate and product of EBP enzymatic reaction, respectively) is 372.3-203.2, CE 30 and DP 80 in positive ion mode. Percent conversion of the zymosterol-d5 to dehydrolathosterol-d5 was used to derive IC50 curves. Tasin-1 (1′-[(4-Methoxyphenyl)sulfonyl]-4-methyl-1,4′-bipiperidine, CAS 792927-06-1) was used as the reference small molecule inhibitor.
Percent conversion versus the compound concentration data were fit to the following 4-parameter logistic model to generate IC50 curves: […]
Regarding `O=S(=O)(c1cc(F)cc(F)c1)N1CCC2(CC1)CC(N1CC3(COC3)C1)CO2` (racemic) [Example 118, rac-8-((3,5-difluorophenyl)sulfonyl)-3-(2-oxa-6-azaspiro[3.3]heptan-6-yl)-1-oxa-8-azaspiro[4.5]decane], the IC50 lay within 100 to 250 nM.
Next, `N#Cc1cccc(S(=O)(=O)N2CCC3(CCC(N4CC5(COC5)C4)C3)CC2)c1` (stereo not shown) [Example 11]: 100 to 250 nM; `Cc1ccc(S(=O)(=O)N2CCC3(CC2)CC(N2CC(C)(O)C2)CO3)c(Cl)c1` (stereo not shown) [Example 50, 1-(8-((2-Chloro-4-methylphenyl)sulfonyl)-1-oxa-8-azaspiro[4.5]decan-3-yl)-3-methylazetidin-3-ol]: 100 to 250 nM.
The figure for `N#Cc1cc(F)cc(S(=O)(=O)N2CCC3(CC[C@@H](N4CC5(COC5)C4)C3)CC2)c1` (single isomer, unassigned) [Example 85a] is 100 to 250 nM; for `COCCN(C)C1CC2(CCN(S(=O)(=O)c3cc(C)nn3C)CC2)C1` [Example 91, 7-((1,3-dimethyl-1H-pyrazol-5-yl)sulfonyl)-N-(2-methoxyethyl)-N-methyl-7-azaspiro[3.5]nonan-2-amine] it is 250 to 1500 nM; for `COc1ccc(S(=O)(=O)N2CCC3(CCC(N4CC5(COC5)C4)C3)CC2)c(F)c1` (stereo not shown) [Example 129, 6-(8-((2-fluoro-4-methoxyphenyl)sulfonyl)-8-azaspiro[4.5]decan-2-yl)-2-oxa-6-azaspiro[3.3]heptane] it is less than 100 nM.
The figure for `Cc1nc(C(F)(F)F)ccc1S(=O)(=O)N1CCC2(CC1)CC(N1CC(O)C1)C2` [Example 95, 1-(7-((2-methyl-6-(trifluoromethyl)pyridin-3-yl)sulfonyl)-7-azaspiro[3.5]nonan-2-yl)azetidin-3-ol] is less than 100 nM; for `O=S(=O)(c1cc(F)cc(F)c1)N1CCC2(CC1)C[C@H](N1CC3(COC3)C1)CO2` (single isomer, unassigned) [Example 119a] it is less than 100 nM; for `O=S(=O)(c1ccc(OC(F)F)cc1)N1CCC2(CC1)C[C@H](N1CC[C@]3(CCOC3)C1)CO2` (single isomer, unassigned) [Example 30b] it is 250 to 1500 nM.
As to `COc1ncc(Cl)cc1S(=O)(=O)N1CCC2(CC1)CC(N1CC3(COC3)C1)CO2` (stereo not shown) [Example 62, 8-((5-Chloro-2-methoxypyridin-3-yl)sulfonyl)-3-(2-oxa-6-azaspiro[3.3]heptan-6-yl)-1-oxa-8-azaspiro[4.5]decane], the concentration for half-maximal inhibition (IC50) lay in the range of 250 to 1500 nM.
The figure for `COc1ccc(S(=O)(=O)N2CCC3(CC2)CC(N2CCOCC2)CO3)c(C)n1` (stereo not shown) [Example 20, 8-((6-Methoxy-2-methylpyridin-3-yl)sulfonyl)-3-morpholino-1-oxa-8-azaspiro[4.5]decane] is 250 to 1500 nM; for `COc1ncc(C)cc1S(=O)(=O)N1CCC2(CCC(NC3(C)COC3)C2)CC1` (stereo not shown) [Example 41] it is 100 to 250 nM.
Next, `O=S(=O)(c1cc2cccnc2cc1F)N1CCC2(CCC(N3CC4(COC4)C3)C2)CC1` (stereo not shown) [Example 102, 6-(8-((7-fluoroquinolin-6-yl)sulfonyl)-8-azaspiro[4.5]decan-2-yl)-2-oxa-6-azaspiro[3.3]heptane]: 100 to 250 nM; `N#Cc1ccc(S(=O)(=O)N2CCC3(CCC(N4CC5(COC5)C4)C3)CC2)c(Cl)c1` (stereo not shown) [Example 126, 4-((2-(2-oxa-6-azaspiro[3.3]heptan-6-yl)-8-azaspiro[4.5]decan-8-yl)sulfonyl)-3-chlorobenzonitrile]: 100 to 250 nM.
The figure for `O=S(=O)(c1ccc(OC(F)F)cc1)N1CCC2(CC1)CC(N1CCCCC1)CO2` (stereo not shown) [Example 14, 8-((4-(Difluoromethoxy)phenyl)sulfonyl)-3-(piperidin-1-yl)-1-oxa-8-azaspiro[4.5]decane] is 250 to 1500 nM; for `Cc1nc(Cl)ccc1S(=O)(=O)N1CCC2(CC1)CC(N1C[C@H]3C[C@@H]1CO3)C2` [Example 94, (1R,4R)-5-(7-((6-chloro-2-methylpyridin-3-yl)sulfonyl)-7-azaspiro[3.5]nonan-2-yl)-2-oxa-5-azabicyclo[2.2.1]heptane] it is less than 100 nM; for `O=S(=O)(c1ccc(OC(F)F)cc1)N1CCC2(CC1)CC(N1CC3(CCOC3)C1)CO2` (stereo not shown) [Example 69, 8-((4-(Difluoromethoxy)phenyl)sulfonyl)-3-(6-oxa-2-azaspiro[3.4]octan-2-yl)-1-oxa-8-azaspiro[4.5]decane] it is 250 to 1500 nM.
For the compound `O=S(=O)(c1ccc(OC(F)F)cc1)N1CCC2(CC[C@@H](N3C[C@H]4C[C@@H]3CO4)C2)CC1` (single isomer, unassigned) [Example 86a], the IC50 is less than 100 nM.
Next, `O=S(=O)(c1coc(C(F)(F)F)c1)N1CCC2(CCC(N3CC4(COC4)C3)C2)CC1` (stereo not shown) [Example 101, 6-(8-((5-(trifluoromethyl)furan-3-yl)sulfonyl)-8-azaspiro[4.5]decan-2-yl)-2-oxa-6-azaspiro[3.3]heptane]: less than 100 nM; `Cc1ccc(S(=O)(=O)N2CCC3(CC2)CC(N2CC(O)C2)CO3)c(Cl)c1` (stereo not shown) [Example 52, 1-(8-((2-Chloro-4-methylphenyl)sulfonyl)-1-oxa-8-azaspiro[4.5]decan-3-yl)azetidin-3-ol]: 100 to 250 nM; `O=S(=O)(c1ccc2ncc(F)cc2c1)N1CCC2(CCC(N3CC4(COC4)C3)C2)CC1` (stereo not shown) [Example 133, 6-(8-((3-fluoroquinolin-6-yl)sulfonyl)-8-azaspiro[4.5]decan-2-yl)-2-oxa-6-azaspiro[3.3]heptane]: 100 to 250 nM.
Next, `COc1ncc(S(=O)(=O)N2CCC3(CCC(N4CC5(COC5)C4)C3)CC2)cc1Cl` (stereo not shown) [Example 106]: less than 100 nM.
In the case of `COCCNC1COC2(CCN(S(=O)(=O)c3cc(C#N)ccc3F)CC2)C1` (stereo not shown) [Example 44, 4-Fluoro-3-((3-((2-methoxyethyl)amino)-1-oxa-8-azaspiro[4.5]decan-8-yl)sulfonyl)benzonitrile], the IC50 was 250 to 1500 nM.
The figure for `COCCNC1COC2(CCN(S(=O)(=O)c3cc(C)cnc3OC)CC2)C1` (stereo not shown) [Example 65, 8-((2-Methoxy-5-methylpyridin-3-yl)sulfonyl)-N-(2-methoxyethyl)-1-oxa-8-azaspiro[4.5]decan-3-amine] is 100 to 250 nM; for `Cc1ccc(C#N)cc1S(=O)(=O)N1CCC2(CC1)C[C@H](N1CCOCC1)CO2` (single isomer, unassigned) [Example 15b] it is 250 to 1500 nM.
The figure for `COCCNC1COC2(CCN(S(=O)(=O)c3ccc(C)cc3C)CC2)C1` (stereo not shown) [Example 116, 8-((2,4-dimethylphenyl)sulfonyl)-N-(2-methoxyethyl)-1-oxa-8-azaspiro[4.5]decan-3-amine] is 250 to 1500 nM; for `Cn1nc2c(c1S(=O)(=O)N1CCC3(CCC(N4CCOCC4)C3)CC1)COCC2` (stereo not shown) [Example 24, 2-Methyl-3-((2-morpholino-8-azaspiro[4.5]decan-8-yl)sulfonyl)-2,4,6,7-tetrahydropyrano[4,3-c]pyrazole] it is 250 to 1500 nM; for `O=S(=O)(c1ccc2ccoc2c1)N1CCC2(CCC(N3CC4(COC4)C3)C2)CC1` (stereo not shown) [Example 135, 6-(8-(benzofuran-6-ylsulfonyl)-8-azaspiro[4.5]decan-2-yl)-2-oxa-6-azaspiro[3.3]heptane] it is 100 to 250 nM.
Next, `O=S(=O)(c1ccc(OC(F)F)cc1)N1CCC2(CCC(N3C[C@H]4C[C@@H]3CO4)C2)CC1` (stereo partly drawn) [Example 27, (1R,4R)-5-(8-((4-(Difluoromethoxy)phenyl)sulfonyl)-8-azaspiro[4.5]decan-2-yl)-2-oxa-5-azabicyclo[2.2.1]heptane]: less than 100 nM.
As to `Cc1cc(S(=O)(=O)N2CCC3(CCC(N4CC5(COC5)C4)C3)CC2)cnc1C` (stereo not shown) [Example 109], the IC50 lay within 100 to 250 nM.
Take `N#Cc1ccc(F)c(S(=O)(=O)N2CCC3(CC2)CC(NC2CCC(F)(F)CC2)CO3)c1` (stereo not shown) [Example 48, 3-((3-((4,4-Difluorocyclohexyl)amino)-1-oxa-8-azaspiro[4.5]decan-8-yl)sulfonyl)-4-fluorobenzonitrile]: the IC50 lay within 100 to 250 nM.
`COCCN(C)C1CCC2(CCN(S(=O)(=O)c3cc(C)cnc3OC)CC2)C1` (stereo not shown) [Example 40] returned an IC50 of 100 to 250 nM.
Next, `Cc1cc(S(=O)(=O)N2CCC3(CCC(N4C[C@H]5C[C@@H]4CO5)C3)CC2)n(C)n1` (stereo partly drawn) [Example 88, (1R,4R)-5-(8-((1,3-dimethyl-1H-pyrazol-5-yl)sulfonyl)-8-azaspiro[4.5]decan-2-yl)-2-oxa-5-azabicyclo[2.2.1]heptane]: 100 to 250 nM.
Next, `Cc1ccc(S(=O)(=O)N2CCC3(CCC(N4CC5(COC5)C4)C3)CC2)cc1C#N` (stereo not shown) [Example 128, 5-((2-(2-oxa-6-azaspiro[3.3]heptan-6-yl)-8-azaspiro[4.5]decan-8-yl)sulfonyl)-2-methylbenzonitrile]: less than 100 nM; `Cc1ccc(S(=O)(=O)N2CCC3(CC2)C[C@@H](N2CC(O)C2)CO3)c(Cl)c1` (single isomer, unassigned) [Example 53a]: less than 100 nM; `O=S(=O)(c1ccc(OC(F)F)cc1)N1CCC2(CC1)CC(N1CC3(CCCOC3)C1)CO2` (stereo not shown) [Example 143, 8-((4-(difluoromethoxy)phenyl)sulfonyl)-3-(6-oxa-2-azaspiro[3.5]nonan-2-yl)-1-oxa-8-azaspiro[4.5]decane]: 100 to 250 nM.
Next, `Cc1cc(F)c(S(=O)(=O)N2CCC3(CC2)CC(N2CCOCC2)CO3)c(F)c1` (stereo not shown) [Example 16]: 250 to 1500 nM.

By IC50 is commonly meant the point on the concentration scale where inhibition reaches its midpoint.
